Legend:
Acetylcholinesterase [1] = target: T1, Acetylcholinesterase (Homo sapiens, UniProt P22303); experiment: Inhibition of human erythrocyte AChE using acetylthiocholine iodide as substrate preincubated for 5 mins followed by substrate addition measured every minute for 10 mins by Ellman's method
Cholinesterase = Cholinesterase (Equus caballus, UniProt P81908)
Description: Inhibition of equine serum BChE using butyrylthiocholine iodide as substrate preincubated for 5 mins followed by substrate addition measured every minute for 10 mins by Ellman's method

[2] = Effective permeability of compound at 100 uM at pH 7.4 by PAMPA; type: ADME; conditions: read-out: Peff
[3] = Selectivity index, ratio of IC50 for equine serum BChE to IC50 for human erythrocyte AChE
Acetylcholinesterase [4] = target: T1, Acetylcholinesterase; experiment: Inhibition of human erythrocyte AChE using acetylthiocholine iodide as substrate at 10 uM preincubated for 5 mins followed by substrate addition measured every minute for 10 mins by Ellman's method relative to control
[5] = target: Cholinesterase (Equus caballus) (UniProt P81908); experiment: Inhibition of equine serum BChE using butyrylthiocholine iodide as substrate at 10 uM preincubated for 5 mins followed by substrate addition measured every minute for 10 mins by Ellman's method relative to control
[6] = Half life in 2% riboflavine solution in PBS at 25 uM by HPLC-UV analysis; type: physicochemical; conditions: buffer, 25 µM

T1 sequence (P22303 whole entry): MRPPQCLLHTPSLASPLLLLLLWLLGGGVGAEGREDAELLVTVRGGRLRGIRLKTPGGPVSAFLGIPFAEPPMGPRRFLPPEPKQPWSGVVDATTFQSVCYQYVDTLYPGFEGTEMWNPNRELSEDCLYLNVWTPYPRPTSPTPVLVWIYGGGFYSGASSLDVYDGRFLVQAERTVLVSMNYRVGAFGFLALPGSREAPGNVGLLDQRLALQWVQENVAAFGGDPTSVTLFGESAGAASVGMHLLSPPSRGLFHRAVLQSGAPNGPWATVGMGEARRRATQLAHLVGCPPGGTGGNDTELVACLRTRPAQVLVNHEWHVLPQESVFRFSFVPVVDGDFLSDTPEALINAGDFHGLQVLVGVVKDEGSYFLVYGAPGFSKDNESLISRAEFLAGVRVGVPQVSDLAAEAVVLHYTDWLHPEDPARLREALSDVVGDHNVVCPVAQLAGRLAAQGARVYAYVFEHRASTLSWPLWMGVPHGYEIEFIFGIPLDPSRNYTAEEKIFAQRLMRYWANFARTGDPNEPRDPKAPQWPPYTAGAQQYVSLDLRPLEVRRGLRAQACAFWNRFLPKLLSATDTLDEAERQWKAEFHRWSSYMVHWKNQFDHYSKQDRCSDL
Sequence of Cholinesterase (P81908 whole entry): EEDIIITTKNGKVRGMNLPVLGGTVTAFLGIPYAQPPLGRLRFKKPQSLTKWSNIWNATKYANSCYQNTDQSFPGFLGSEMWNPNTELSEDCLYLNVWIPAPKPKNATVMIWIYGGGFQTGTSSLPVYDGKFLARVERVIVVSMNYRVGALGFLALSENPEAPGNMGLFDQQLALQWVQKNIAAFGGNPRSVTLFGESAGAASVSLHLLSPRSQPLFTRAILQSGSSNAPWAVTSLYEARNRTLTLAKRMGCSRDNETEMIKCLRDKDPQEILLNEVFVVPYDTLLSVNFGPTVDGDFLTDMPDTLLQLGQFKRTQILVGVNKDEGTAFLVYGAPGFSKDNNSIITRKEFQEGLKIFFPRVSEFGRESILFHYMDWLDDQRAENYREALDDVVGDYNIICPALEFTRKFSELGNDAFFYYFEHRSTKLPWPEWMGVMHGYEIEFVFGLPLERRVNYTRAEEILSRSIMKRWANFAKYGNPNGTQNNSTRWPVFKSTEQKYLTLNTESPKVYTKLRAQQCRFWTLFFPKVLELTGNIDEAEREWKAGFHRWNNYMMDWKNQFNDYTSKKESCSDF
Sequence of Cholinesterase (Equus caballus) (P81908 whole entry): as above

Row | SMILES | IC50 (Acetylcholinesterase [1]) [µM] | IC50 (Cholinesterase) [µM] | Ratio IC50 [3] | further results
1 | COc1cc2c(cc1OC)C(=O)C(Cc1cc[n+](Cc3cccc(Cl)c3)cc1C(=O)O)C2 (stereo not given) | > 10 | > 10 |  | 
2 | COc1cc2c(cc1OC)C(=O)C(CC1C=CN(Cc3ccccc3)C=C1C(C)=O)CC2 (stereo not given) [listing 1 of 2 here] |  |  |  | Papp at 100 µM [2]: 20.4 ×10⁻⁶ cm/s
3 | COc1cc2c(cc1OC)C(=O)C(Cc1cc[n+](Cc3cccc(Cl)c3)cc1C(C)=O)CC2 (stereo not given) | 0.021 |  |  | 
4 | COc1ccc2c(c1)CCC(CC1C=CN(Cc3ccc(C)cc3)C=C1C(C)=O)C2=O (stereo not given) | > 10 | > 10 |  | 
5 | COc1ccc(C(=O)CCC2C=CN(Cc3cccc(Cl)c3)C=C2C(C)=O)cc1OC (stereo not given) | > 10 | > 10 |  | Papp at 100 µM [2]: 18.2 ×10⁻⁶ cm/s
6 | COc1cc2c(cc1OC)C(=O)C(CC1C=CN(Cc3ccccc3)C=C1C(C)=O)CC2 (stereo in doubt; 24a-B) | 0.286 | 1.83 |  | 
7 | COc1ccc2c(c1)CCC(Cc1cc[n+](Cc3ccccc3C)cc1C(N)=O)C2=O (stereo not given) | 0.894 | 9.11 | 10.2 | 
8 | COc1cc2c(cc1OC)C(=O)C(Cc1cc[n+](Cc3cccc(O)c3)cc1C(N)=O)C2 (stereo not given) | > 10 | 5.36 |  | 
9 | COc1ccc(C(=O)CCc2cc[n+](Cc3cccc(Cl)c3)cc2C(N)=O)cc1OC | > 10 | > 10 |  | 
10 | C[C@]12CCC(=O)C=C1CC[C@@H]1[C@@H]2C(=O)C[C@@]2(C)[C@H]1CC[C@]2(O)C(=O)CO [CORTISONE] |  |  |  | Papp at 100 µM [2]: 16.8 to 20.3 ×10⁻⁶ cm/s
11 | COc1cc2c(cc1OC)C(=O)C(CC1C=CN(Cc3ccccc3)C=C1C(C)=O)CC2 (stereo not given) [listing 2 of 2 here] |  |  |  | inhibition (Acetylcholinesterase [4]): 36%; inhibition [5]: 45%
12 | COc1cc2c(cc1OC)C(=O)C(CC1C=CN(Cc3ccccc3)C=C1C(C)=O)CC2 (stereo in doubt; 24a-C) | 0.173 | 1.67 |  | 
13 | COc1ccc(C(=O)CCc2cc[n+](Cc3ccc(Cl)cc3)cc2C#N)cc1OC | > 10 | > 10 |  | 
14 | CCC[n+]1ccc(CC2CCc3cc(OC)ccc3C2=O)c(C(C)=O)c1 (stereo not given) | > 10 | > 10 |  | 
15 | COC(=O)C1=CN(Cc2cccc(Cl)c2)C=CC1CCC(=O)c1ccc(OC)c(OC)c1 (stereo not given) | > 10 | > 10 |  | 
16 | COc1cc2c(cc1OC)C(=O)C(CC1C=CN(Cc3cccc(Cl)c3)C=C1C(N)=O)C2 (stereo in doubt; 23h-B) | 27 | 19.9 |  | t1/2 [6]: 17.7 min
17 | COc1ccc2c(c1)CCC(Cc1cc[n+](Cc3ccc(C)cc3)cc1C(C)=O)C2=O (stereo not given) |  |  | 7.4 | 
18 | COc1ccc(C(=O)CCc2cc[n+](Cc3ccccc3C(F)(F)F)cc2C#N)cc1OC | 0.275 |  |  | 
19 | COc1ccc2c(c1)CCC(CC1C=CN(Cc3cccc(C)c3)C=C1C(C)=O)C2=O (stereo not given) | > 10 |  |  | 
20 | COC(=O)c1ccccc1C[n+]1ccc(CC2Cc3cc(OC)c(OC)cc3C2=O)c(C(=O)Oc2c(Cl)cc(Cl)cc2Cl)c1 (stereo not given) | 0.0693 | 0.373 | 5.38 | 
21 | CC(=O)c1c[n+](Cc2ccccc2C)ccc1CC1Cc2cc(OCC(F)(F)F)ccc2C1=O (stereo not given) | 0.0371 | 4.15 | 112 | 

Row | SMILES | IC50 (Acetylcholinesterase [1]) [µM] | IC50 (Cholinesterase) [µM] | Ratio IC50 [3] | further results
22 | COc1ccc2c(c1)CCC(Cc1cc[n+](Cc3ccccc3C)cc1C(F)(F)F)C2=O (stereo not given) | 0.242 | 2.24 | 9.2 | 
23 | COc1ccc2c(c1)CCC(CC1C=CN(Cc3ccccc3Cl)C=C1C(C)=O)C2=O (stereo not given) | > 10 |  |  | Papp at 100 µM [2]: 21.2 ×10⁻⁶ cm/s
24 | COc1cc2c(cc1OC)C(=O)C(CC1C=CN(Cc3ccccc3)C=C1C(C)=O)CC2 (stereo in doubt; 24a-D) | 0.924 | 9.07 |  | 
25 | CC(=O)c1c[n+](Cc2cccc(Cl)c2)ccc1CC1Cc2cc(F)ccc2C1=O (stereo not given) | > 10 |  |  | 
26 | COc1ccc2c(c1)CCC(Cc1cc[n+](Cc3cccc(Cl)c3)cc1C(C)=O)C2=O (stereo not given) |  |  | 6.9 | 
27 | COc1ccc2c(c1)CCC(CC1C=CN(Cc3cccc(C(F)(F)F)c3)C=C1C(C)=O)C2=O (stereo not given) | > 10 | > 10 |  | 
28 | COc1ccc2c(c1)CCC(CC1C=CN(Cc3cccc(F)c3)C=C1C(C)=O)C2=O (stereo not given) | > 10 |  |  | 
29 | COc1cc2c(cc1OC)C(=O)C(Cc1cc[n+](Cc3ccccc3)cc1Br)C2 (stereo not given) |  |  | 4970 | 
30 | COc1ccc2c(c1)CCC(Cc1cc[n+](CC3CCCCC3)cc1C(C)=O)C2=O (stereo not given) | 0.21 | 0.341 | 1.6 | 
31 | CC(=O)C1=CN(Cc2cccc(Cl)c2)C=CC1CC1Cc2cc(F)ccc2C1=O (stereo not given) | > 10 | > 10 |  | 
32 | COc1ccc2c(c1)CCC(Cc1cc[n+](Cc3ccccc3Cl)cc1C(C)=O)C2=O (stereo not given) | 0.0295 |  | 8.6 | 
33 | COc1cc2c(cc1OC)C(=O)C(CC1C=CN(Cc3ccccc3C)C=C1C(C)=O)C2 (stereo not given) |  |  |  | Papp at 100 µM [2]: 19.1 ×10⁻⁶ cm/s
34 | COc1cc2c(cc1OC)C(=O)C(Cc1cc[n+](Cc3nc4ccccc4o3)cc1C(N)=O)C2 (stereo not given) | 9.27 | > 10 |  | 
35 | COc1ccc2c(c1)CCC(Cc1cc[n+](Cc3ccccc3Cl)cc1C(N)=O)C2=O (stereo not given) | 0.379 | 2.64 | 6.9 | 
36 | COc1ccc(C(=O)CCc2cc[n+](Cc3cccc(F)c3)cc2C#N)cc1OC | 0.011 | > 10 |  | 
37 | COc1cc2c(cc1OC)C(=O)C(CC1C=CN(Cc3cccc(Cl)c3)C=C1C(N)=O)C2 (stereo not given) |  |  |  | inhibition (Acetylcholinesterase [4]): 29%; inhibition [5]: 6%
38 | COc1cc2c(cc1OC)C(=O)C(Cc1cc[n+](Cc3ccc(S(N)(=O)=O)cc3)cc1C(N)=O)C2 (stereo not given) | > 10 | > 10 |  | 
39 | COc1cc2c(cc1O)C(=O)C(Cc1cc[n+](Cc3cccc(Cl)c3)cc1C(C)=O)C2 (stereo not given) | 0.0027 | > 10 |  | 
40 | COc1ccc2c(c1)CCC(Cc1cc[n+](Cc3cccc(C)c3)cc1Br)C2=O (stereo not given) |  |  | 40 | 
41 | COc1ccc(C(=O)CCc2cc[n+](Cc3cccc(Cl)c3)cc2C(C)=O)cc1OC | 0.144 | 3.2 | 22.2 | 
42 | COc1ccc2c(c1)CCC(Cc1cc[n+](Cc3ccc(Cl)cc3)cc1C(C)=O)C2=O (stereo not given) |  |  | 10.7 | 

Row | SMILES | IC50 (Acetylcholinesterase [1]) [µM] | IC50 (Cholinesterase) [µM] | Ratio IC50 [3] | further results
43 | COc1ccc(C(=O)CCC2C=CN(Cc3cccc(Cl)c3)C=C2C(N)=O)cc1OC (stereo not given) | > 10 | > 10 |  | Papp at 100 µM [2]: 18.9 ×10⁻⁶ cm/s
44 | COc1ccc2c(c1)CCC(Cc1cc[n+](Cc3ccccc3C)cc1C(C)=O)C2=O (stereo not given) |  |  | 43.3 | 
45 | COc1ccc2c(c1)CCC(Cc1cc[n+](Cc3cccc(C)c3)cc1C(C)=O)C2=O (stereo not given) |  |  | 5.3 | 
46 | COc1cc2c(cc1OC)C(=O)C(CCCc1cc[n+](Cc3cccc(Cl)c3)cc1C(N)=O)C2 (stereo not given) | > 10 | 3.26 |  | 
47 | COc1cc2c(cc1OC)C(=O)C(Cc1cc[n+](CCc3ccccc3)cc1C(N)=O)C2 (stereo not given) | 0.896 | > 10 |  | 
48 | COc1ccc2c(c1)CCC(Cc1cc[n+](Cc3cccc(F)c3)cc1C(C)=O)C2=O (stereo not given) |  |  | 7.5 | 
49 | COC(=O)c1c[n+](Cc2cccc(Cl)c2)ccc1CCC(=O)c1ccc(OC)c(OC)c1 | 0.171 | 2.03 |  | 
50 | COc1ccc2c(c1)CCC(CC1C=CN(Cc3ccccc3C)C=C1C(N)=O)C2=O (stereo not given) | > 10 | > 10 |  | Papp at 100 µM [2]: 18.8 ×10⁻⁶ cm/s
51 | COc1cc2c(cc1OC)C(=O)C(Cc1cc[n+](Cc3cccc(C)n3)cc1C(N)=O)C2 (stereo not given) | 1.86 | > 10 |  | 
52 | COc1ccc2c(c1)CCC(Cc1cc[n+](Cc3ccccc3F)cc1C(C)=O)C2=O (stereo not given) |  |  | 11 | 
53 | COc1ccc2c(c1)CCC(Cc1cc[n+](Cc3cccc(C(F)(F)F)c3)cc1C(C)=O)C2=O (stereo not given) |  |  | 18 | 
54 | COc1ccc2c(c1)CCC(CC1C=CN(Cc3ccccc3F)C=C1C(C)=O)C2=O (stereo not given) | > 10 |  |  | 
55 | COc1ccc(C(=O)CCC2C=CN(Cc3cccc(Cl)c3)C=C2C#N)cc1OC (stereo not given) | 0.923 | > 10 |  | Papp at 100 µM [2]: 15.1 ×10⁻⁶ cm/s
56 | COc1ccc2c(c1)CCC(CC1C=CN(Cc3ccc(Cl)cc3)C=C1C(C)=O)C2=O (stereo not given) | > 10 | > 10 |  | 
57 | COc1ccc(C(=O)CCc2cc[n+](Cc3cccc(Cl)c3)cc2C(=O)O)cc1OC | 0.0181 |  |  | 
58 | COc1ccc(C(=O)CCc2cc[n+](Cc3cccc(Cl)c3)cc2C#N)cc1OC | 0.0222 | 4.24 | 191 | 
59 | CC(=O)c1c[n+](Cc2cccc(Cl)c2)ccc1CC1Cc2cc(O)ccc2C1=O (stereo not given) | 0.116 | > 10 |  | 
60 | COc1ccc(C(=O)CCCCc2cc[n+](Cc3cccc(Cl)c3)cc2C(N)=O)cc1OC | > 10 | > 10 |  | 
61 | CNC(=O)c1c[n+](Cc2ccccc2C)ccc1CC1CCc2cc(OC)ccc2C1=O (stereo not given) | > 10 | 2.51 |  | 

From ChEMBL document CHEMBL4145472, “Novel donepezil-like N-benzylpyridinium salt derivatives as AChE inhibitors and their corresponding dihydropyridine "bio-oxidizable" prodrugs: Synthesis, biological evaluation and structure-activity relationship” (Eur J Med Chem, 2018)
